Earlier results as cited in patent US20190078102A1, “BIOSYNTHETIC PRODUCTION OF STEVIOL GLYCOSIDES AND PROCESSES THEREFORE” (Conagen-Inc., priority 2017, published 2019).

Details: background statement

In the case of `C=C1C[C@@]23CC[C@H]4[C@@](C)(CCC[C@@]4(C)C(=O)O[C@@H]4O[C@H](CO)[C@@H](O)[C@H](O)[C@H]4O)[C@@H]2CC[C@]1(O[C@@H]1O[C@H](CO)[C@@H](O)[C@H](O)[C@H]1O[C@@H]1O[C@H](CO)[C@@H](O)[C@H](O)[C@H]1O)C3` [stevioside], the “times sweeter than sucrose” value is listed as 100-150 times.
